Measured values taken from paper PMC13195121, “A plasmid toolbox for the easy autodisplay of recombinant proteins and its optimization” (Communications Biology, 2026).
Counter-ions that a name gives are not always drawn.

Key:
[1] = target: T1, β-Gluc (β-glucosidase BglA LYTH) (Caldicellulosiruptor saccharolyticus, UniProt P10482); assay: whole-cell absorbance assay at […] nm, surface-displaying E. coli; type: cell-based; details: 5 mM pNPG; 0.1 M Na-citrate pH 6; 55 °C
T1 construct: His6 tag and fXa site
T1 sequence (P10482 whole entry): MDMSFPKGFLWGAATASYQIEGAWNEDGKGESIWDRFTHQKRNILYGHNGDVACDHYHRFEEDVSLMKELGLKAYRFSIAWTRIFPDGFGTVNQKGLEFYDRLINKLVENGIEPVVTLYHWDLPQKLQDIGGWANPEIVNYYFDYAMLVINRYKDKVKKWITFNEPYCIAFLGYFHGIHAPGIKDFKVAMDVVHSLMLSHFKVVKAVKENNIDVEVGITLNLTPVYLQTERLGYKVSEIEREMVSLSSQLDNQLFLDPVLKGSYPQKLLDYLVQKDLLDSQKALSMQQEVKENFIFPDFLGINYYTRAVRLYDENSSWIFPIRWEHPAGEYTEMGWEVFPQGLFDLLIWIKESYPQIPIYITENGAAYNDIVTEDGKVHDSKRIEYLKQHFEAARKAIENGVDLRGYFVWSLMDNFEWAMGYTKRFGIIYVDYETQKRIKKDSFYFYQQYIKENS

laccase CotA = target: T2, laccase CotA (Heyndrickxia coagulans, UniProt A0AAN0WB15); assay: whole-cell absorbance assay at […] nm, surface-displaying P. putida; type: cell-based; details: 0.1 M Na-acetate pH 5.6; 30 °C; cells grown with CuCl2
T2 construct: gene SB48_HM08orf01352; N-terminal His6 tag and fXa site; codon-optimized gene
T2 sequence (A0AAN0WB15 1-522): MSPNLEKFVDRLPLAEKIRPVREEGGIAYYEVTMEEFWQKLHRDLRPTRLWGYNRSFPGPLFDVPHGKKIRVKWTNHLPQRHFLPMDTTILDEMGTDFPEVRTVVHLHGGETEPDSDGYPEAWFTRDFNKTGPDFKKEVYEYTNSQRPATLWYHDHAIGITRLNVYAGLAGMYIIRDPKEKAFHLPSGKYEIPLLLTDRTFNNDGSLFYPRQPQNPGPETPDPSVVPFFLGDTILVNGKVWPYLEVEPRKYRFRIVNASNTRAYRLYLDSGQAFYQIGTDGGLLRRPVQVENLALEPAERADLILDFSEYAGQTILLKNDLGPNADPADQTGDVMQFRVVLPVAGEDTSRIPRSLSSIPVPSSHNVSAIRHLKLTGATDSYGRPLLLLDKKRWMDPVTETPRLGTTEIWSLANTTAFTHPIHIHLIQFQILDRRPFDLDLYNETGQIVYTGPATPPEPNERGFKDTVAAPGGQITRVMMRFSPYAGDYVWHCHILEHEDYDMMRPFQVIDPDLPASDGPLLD

Compound	whole-cell absorbance assay at 405 nm, surface-displaying E. coli [1]	whole-cell absorbance assay at 420 nm, surface-displaying P. putida (laccase CotA)
O=[N+]([O-])c1ccc(O[C@@H]2O[C@H](CO)[C@@H](O)[C@H](O)[C@H]2O)cc1 [4-nitrophenyl-β-D-glucopyranoside]	activity assay with 4-nitrophenyl-β-D-glucopyranoside (pNPG) as substrate	
CCn1c(=NN=c2sc3cc(S(=O)(=O)O)ccc3n2CC)sc2cc(S(=O)(=O)O)ccc21 [ABTS, 2,2’-Azino-bis [3-ethylbenzothiazoline-6-sulfonic acid]-diammonium salt]		The substrate ABTS is converted by the laccase to ABTS^•+
